Test results published in US11858958B2, “Blank liposome with ginsenoside Rg3 or its analog as membrane materials and preparations and uses thereof” (Shanghai Ginsome Pharmatech Co., Ltd., priority 2018, dated 2024).
“And” between values parts separate entries of the source, which are not always exact repeats. Equal values may be shown once.

How the values were obtained:
[1] = system: human breast cancer cell line (4T1); experiment: In vitro cytotoxicity studies (DTX groups); format: cell-based
Description: For each concentration group, 4 replicates were set up. The whole experiment was independently repeated 3 times.
The in vitro cytotoxicity was evaluated using human breast cancer cell line (4T1).

[2] = system: human gastric cancer cell (BGC-823); experiment: In vivo pharmacological efficacy assay, relative tumor volume; design: species or system nude mice
Description: 2. In vivo pharmacological efficacy assay: A total of 72 subcutaneous tumor-bearing nude mice were randomerized into 8 groups (9 in each group), and intravenously injected with PBS solution (Control group,), Rg3, Rg3-blank, PTX-Cho-Lipo, Abraxane, PTX-Rg5-Gipo, PTX-Rg3-Gipo and PTX-Rh2-Gipo, via tail vein at a dose of 10 mg·kg^1. The changes of mice body weights in each group were recorded every 2 days, and the longest diameter and the shortest diameter of tumors were measured with vernier calipers. The tumor volume is calculated by the following formula: V=(dmax×dmin^2)/2, wherein dmin and dmax are respectively the shortest diameter and the longest diameter (mm) of the tumor; a relative tumor volume (RTV) is calculated according to the measurement results by the formula: RTV=TVn/TV0,
wherein TVn is the volume of the tumor measured every 2 days, TV0 is the volume of the tumor measured at day zero (the administration day).

[3] = system: rat C6 glioma cells; experiment: In vitro drug efficiency assay, survival rate of glioma cells; format: cell-based
[4] = system: in-situ glioma model (C6 cells); experiment: Survival curve and median survival day; format: in vivo, nude mice
[5] = in words; cited from earlier work
[6] = system: human breast cancer cell 4T1; experiment: In vivo drug efficacy assay, relative tumor volume (Rh2/PTX groups); design: species or system nude mice; conditions: 4T1, tail vein 30 mg/kg
Description: To evaluate the drug efficacy in vivo, 45 subcutaneous tumor-bearing nude mice were randomized into 5 treatment groups (9 in each group) and intravenously injected with PBS solution (control group), ginsenoside Rh2 (Rh2 group), ginsenoside Rh2 blank liposome (Rh2-Blank group), conventional paclitaxel cholesterol liposome (PTX-Cho-Lipo group) and ginsenoside Rh2 paclitaxel liposome (PTX-Rh2-Gipo group) via tail vein at a dose of 30 mg/kg. The changes of body weights of mice in each group were recorded every 2 days, and the longest diameter and the shortest diameter of tumors were measured with vernier calipers. The tumor volume was calculated by the following formula: V=(dmax×dmin^2)/2, wherein dmin and dmax are respectively the shortest diameter and the longest diameter (mm) of the tumor; a relative tumor volume (RTV) was calculated according to the measurement results, by the formula: RTV=TVn/TV0, […], TV0 is the volume of the tumor measured at day zero (the administration day).

[7] = system: human breast cancer cell line (4T1); experiment: In vitro drug efficacy assay, cell survival rate (Rh2/PTX groups)
Description: Logarithmically growing tumor cells were collected and resuspended in DMEM complete medium supplemented with 10% fetal bovine serum, 100 U/ml penicillin and 100 μg/ml streptomycin to a final cell density of 4×10^4 cells/ml. Then, 200 μl cell suspension solution was seeded into each well of a 96-well plate (with a concentration of 8×10^3 cells/well) and the plate was cultured in a CO2 cell culture incubator at 37° C. […] The group without replacing DMEM complete medium by anti-cancer drug solution was used as negative control. For each concentration group, 4 replicates were set up. The whole experiment was independently repeated 3 times. The cells were continuously cultured in a CO2 cell culture incubator at 37° C. […] Then discarded the supernatant, added 150 μl DMSO into each well, and shaked the plate for 10 min. The absorbance was measured at 490 nm using a microplate reader (Tecan infinite M 200 TECAN, Switzerland). The cell survival rate is calculated according to the following formula:

For `CC(=O)O[C@@]12CO[C@@H]1C[C@H](O)[C@@]1(C)C(=O)[C@H](O)C3=C(C)[C@@H](OC(=O)[C@H](O)[C@@H](NC(=O)OC(C)(C)C)c4ccccc4)C[C@@](O)([C@@H](OC(=O)c4ccccc4)[C@H]21)C3(C)C` [DTX, docetaxel], the “Cell viability(%)” value ([1]; 4T1, Concentration 3.84E−05 μg/ml) was 83.55%, the “Cell viability(%)” value ([1]; 4T1, Concentration 7.68E−06 μg/ml) was 86.66% and the viability at 0.00019 µg/mL ([1]; Homo sapiens, 4T1, Concentration 0.00019 μg/ml) was 72.5%. For the same compound, the viability at 0.00096 µg/mL ([1]; Homo sapiens, 4T1, Concentration 0.00096 μg/ml) was 61.6%, the viability at 0.0048 µg/mL ([1]; Homo sapiens, 4T1, Concentration 0.0048 μg/ml) was 50.9% and the viability at 0.024 µg/mL ([1]; Homo sapiens, 4T1, Concentration 0.024 μg/ml) was 49.9%. For the same compound, the viability at 0.12 µg/mL ([1]; Homo sapiens, 4T1, Concentration 0.12 μg/ml) was 46.3%, the viability at 0.6 µg/mL ([1]; Homo sapiens, 4T1, Concentration 0.6 μg/ml) was 48.9% and the viability at 3 µg/mL ([1]; Homo sapiens, 4T1, Concentration 3 μg/ml) was 51.9%.
With `CC(C)=CCC[C@](C)(O)[C@H]1CC[C@]2(C)[C@@H]1[C@H](O)C[C@@H]1[C@@]3(C)CC[C@H](O[C@@H]4O[C@H](CO)[C@@H](O)[C@H](O)[C@H]4O[C@@H]4O[C@H](CO)[C@@H](O)[C@H](O)[C@H]4O)C(C)(C)[C@@H]3CC[C@]12C` [Rg3, Ginsenoside 20(S)-Rg3] the Relative tumor volume ([2]; BGC-823, tail vein 10 mg·kg^1, time 1 d) was 166.88, the Relative tumor volume ([2]; BGC-823, tail vein 10 mg·kg^1, time 3 d) was 267.38 and the Relative tumor volume ([2]; BGC-823, tail vein 10 mg·kg^1, time 5 d) was 317.96. The Relative tumor volume ([2]; BGC-823, tail vein 10 mg·kg^1, time 7 d) was 417.96, the Relative tumor volume ([2]; BGC-823, tail vein 10 mg·kg^1, time 9 d) was 717.96 and the Relative tumor volume ([2]; BGC-823, tail vein 10 mg·kg^1, time 11 d) was 1340.69. The Relative tumor volume ([2]; BGC-823, tail vein 10 mg·kg^1, time 13 d) was 1636.89, the Relative tumor volume ([2]; BGC-823, tail vein 10 mg·kg^1, time 15 d) was 2034.43 and the Relative tumor volume ([2]; BGC-823, tail vein 10 mg·kg^1, time 17 d) was 2034.43. It also gave a Relative tumor volume ([2]; BGC-823, tail vein 10 mg·kg^1, time 19 d) of 2034.43, a Relative tumor volume ([2]; BGC-823, tail vein 10 mg·kg^1, time 21 d) of 2034.43 and a Relative tumor volume ([2]; BGC-823, tail vein 10 mg·kg^1, time 23 d) of 2034.43. The “Cell Viability” value ([3]; C6, C 0.001 μg/ml (Table 10)) was 100, the “Cell Viability” value ([3]; C6, C 0.003 μg/ml (Table 10)) was 98.82 and the “Cell Viability” value ([3]; C6, C 0.01 μg/ml (Table 10)) was 92.42. For the same compound, the “Cell Viability” value ([3]; C6, C 0.03 μg/ml (Table 10)) was 92.03, the “Cell Viability” value ([3]; C6, C 0.08 μg/ml (Table 10)) was 94.23 and the “Cell Viability” value ([3]; C6, C 0.25 μg/ml (Table 10)) was 95.43. For the same compound, the “Cell Viability” value ([3]; C6, C 0.74 μg/ml (Table 10)) was 92.822, the “Cell Viability” value ([3]; C6, C 2.22 μg/ml (Table 10)) was 96.16 and the “Cell Viability” value ([3]; C6, C 6.67 μg/ml (Table 10)) was 95.02. The “Cell Viability” value ([3]; C6, C 20 μg/ml (Table 10)) was 89.02, the “Median survial” value ([4]; tail vein 10 mg·kg^−1) was 29 days and 32 days and the “number of survived mice” value ([4]; tail vein 10 mg·kg^−1, Time 12 d) was 10. The “number of survived mice” value ([4]; tail vein 10 mg·kg^−1, Time 14 d) was 10, the “number of survived mice” value ([4]; tail vein 10 mg·kg^−1, Time 16 d) was 9 and the “number of survived mice” value ([4]; tail vein 10 mg·kg^−1, Time 18 d) was 9. The “number of survived mice” value ([4]; tail vein 10 mg·kg^−1, Time 20 d) was 8, the “number of survived mice” value ([4]; tail vein 10 mg·kg^−1, Time 22 d) was 7 and the “number of survived mice” value ([4]; tail vein 10 mg·kg^−1, Time 24 d) was 7. For the same compound, the “number of survived mice” value ([4]; tail vein 10 mg·kg^−1, Time 26 d) was 6, the “number of survived mice” value ([4]; tail vein 10 mg·kg^−1, Time 28 d) was 5 and the “number of survived mice” value ([4]; tail vein 10 mg·kg^−1, Time 30 d) was 4. For the same compound, the “number of survived mice” value ([4]; tail vein 10 mg·kg^−1, Time 32 d) was 4, the “number of survived mice” value ([4]; tail vein 10 mg·kg^−1, Time 34 d) was 3 and the “number of survived mice” value ([4]; tail vein 10 mg·kg^−1, Time 36 d) was 3. The “number of survived mice” value ([4]; tail vein 10 mg·kg^−1, Time 38 d) was 2, the “number of survived mice” value ([4]; tail vein 10 mg·kg^−1, Time 40 d) was 1 and the “number of survived mice” value ([4]; tail vein 10 mg·kg^−1, Time 42 d) was 0. The “number of survived mice” value ([4]; tail vein 10 mg·kg^−1, Time 44 d) was 0, the “number of survived mice” value ([4]; tail vein 10 mg·kg^−1, Time 46 d) was 0 and the “number of survived mice” value ([4]; tail vein 10 mg·kg^−1, Time 48 d) was 0. For the same compound, the “number of survived mice” value ([4]; tail vein 10 mg·kg^−1, Time 50 d) was 0, the “number of survived mice” value ([4]; tail vein 10 mg·kg^−1, Time 52 d) was 0 and the “number of survived mice” value ([4]; tail vein 10 mg·kg^−1, Time 54 d) was 0. The “number of survived mice” value ([4]; tail vein 10 mg·kg^−1, Time 56 d) was 0, the “number of survived mice” value ([4]; tail vein 10 mg·kg^−1, Time 58 d) was 0 and the “number of survived mice” value ([4]; tail vein 10 mg·kg^−1, Time 60 d) was 0. For the same compound, the “number of survived mice” value ([4]; tail vein 10 mg·kg^−1, Time 62 d) was 0, the “solubility in diethyl ether and chloroform” value [5] was “insoluble in diethyl ether and chloroform” and the “solubility in methanol and ethanol” value [5] was “soluble in methanol and ethanol”. The solubility in water [5] was “poorly soluble in water”.
Work on `CC(C)=CCC[C@](C)(O)[C@H]1CC[C@]2(C)[C@@H]1[C@H](O)C[C@@H]1[C@@]3(C)CC[C@H](O[C@@H]4O[C@H](CO)[C@@H](O)[C@H](O)[C@H]4O)C(C)(C)[C@@H]3CC[C@]12C` [Rh2, ginsenoside Rh2] yielded a Relative tumor volume ([6]; time 0 d) of 100.00, a Relative tumor volume ([6]; time 3 d) of 200.94 and a Relative tumor volume ([6]; time 6 d) of 316.69. The Relative tumor volume ([6]; time 9 d) was 276.04, the Relative tumor volume ([6]; time 12 d) was 400.20 and the Relative tumor volume ([6]; time 15 d) was 473.53. For the same compound, the Relative tumor volume ([6]; time 18 d) was 510.20, the Relative tumor volume ([6]; time 21 d) was 898.52 and the “Cell Viability” value ([7]; 4T1, C 0.00366 μM) was 104.04. The “Cell Viability” value ([7]; 4T1, C 0.01097 μM) was 92.85, the “Cell Viability” value ([7]; 4T1, C 0.03292 μM) was 94.47 and the “Cell Viability” value ([7]; 4T1, C 0.09877 μM) was 99.90. The “Cell Viability” value ([7]; 4T1, C 0.29630 μM) was 98.07, the “Cell Viability” value ([7]; 4T1, C 0.88889 μM) was 96.04 and the “Cell Viability” value ([7]; 4T1, C 2.66667 μM) was 104.25. For the same compound, the “Cell Viability” value ([7]; 4T1, C 8.00000 μM) was 100.73, the “activity in vitro against human breast cancer cells (4T1)” value ([7]; in words) was “low activity” and the “solubility in diethyl ether and chloroform” value [5] was “insoluble in diethyl ether and chloroform”. The “solubility in methanol and ethanol” value [5] was “soluble in methanol and ethanol” and the solubility in water [5] was “poorly soluble in water”.
